Results taken from patent US7098231B2, “Viral polymerase inhibitors” (Boehringer Ingelheim International GmbH, priority 2003, dated 2006).

These compounds were tested against T1, hepatitis C virus RNA dependent polymerase (NS5B) (Hepatitis C virus genotype 1b, UniProt P26663) (assay: biochemical).
T1 construct: The C-terminal polyprotein cleavage product, NS5B, is the elongation subunit of the HCV replicase
Method: Inhibition of NS5B RNA Dependent RNA Polymerase Activity
The compounds of the invention were tested for inhibitory activity against the hepatitis C virus RNA dependent polymerase (NS5B), according to the protocol described in WO 03/010141.

T1 sequence (P26663 2420-3010): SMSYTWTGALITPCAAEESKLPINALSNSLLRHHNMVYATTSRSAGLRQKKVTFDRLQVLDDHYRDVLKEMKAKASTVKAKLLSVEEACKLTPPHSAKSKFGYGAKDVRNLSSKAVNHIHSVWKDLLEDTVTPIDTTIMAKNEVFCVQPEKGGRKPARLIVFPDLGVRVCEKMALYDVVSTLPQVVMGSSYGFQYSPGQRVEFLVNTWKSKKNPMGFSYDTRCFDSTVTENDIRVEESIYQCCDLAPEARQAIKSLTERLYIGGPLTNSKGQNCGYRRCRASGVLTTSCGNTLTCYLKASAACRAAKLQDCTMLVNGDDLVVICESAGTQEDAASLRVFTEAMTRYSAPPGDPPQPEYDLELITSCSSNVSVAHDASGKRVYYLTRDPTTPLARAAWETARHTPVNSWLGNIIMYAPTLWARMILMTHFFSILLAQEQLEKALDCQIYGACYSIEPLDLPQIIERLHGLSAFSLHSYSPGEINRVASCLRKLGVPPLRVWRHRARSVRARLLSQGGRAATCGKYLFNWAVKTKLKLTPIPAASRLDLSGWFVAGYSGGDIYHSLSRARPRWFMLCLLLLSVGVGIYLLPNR

Q: `COc1c(C(=O)NS(C)(=O)=O)ccc2c(C3CCCC3)c(-c3ccoc3)n(C)c12` [compound 201] was tested. Which IC50 did it give?
A: < 1000 nM

Q: How did the IC50 turn out when `COc1c(C(=O)NS(=O)(=O)c2ccccc2)ccc2c(C3CCCC3)c(-c3ccoc3)n(C)c12` [compound 202] was run?
A: < 1000 nM

Q: How did the IC50 turn out when `Cn1c(-c2ccoc2)c(C2CCCCC2)c2cc(C(=O)NS(C)(=O)=O)ccc21` [compound 203] was run?
A: 1000 to 20000 nM

Q: `Cn1c(-c2ccoc2)c(C2CCCCC2)c2cc(C(=O)NS(=O)(=O)c3ccccc3)ccc21` [compound 204] was tested. Which IC50 did it give?
A: 1000 to 20000 nM
